What all share (type): cell-based
One data set relates to VCAM-1 promoter. The experiment in a line: VCAM-1 promoter construct activity in transiently transfected bovine aortic endothelial cells. The text has this:
To localize cis-acting elements in the VCAM-1 promoter that might mediate the inhibitory effects of [11,12]-EET, we transiently transfected bovine aortic endothelial cells with a -755 bp VCAM-1 promoter construct (DeCaterina et al., 96 J. Clin. Invest. 60 (1995)). Stimulation with TNF-α induced a 13-fold increase in relative VCAM-1 promoter activity that was abolished by cotreatment with [11,12]-EET. […] To confirm that the tandem κB sites in the VCAM-1 promoter are repressed by [11,12]-EET we subcloned them into a heterologous promoter construct containing the SV40 enhancer linked to the luciferase reporter gene (pκB.Luc). Stimulation of transfected endothelial cells with TNF-α induced a 6-fold increase in pκB.Luc promoter activity that was abolished by co-treatment with [11,12]-EET, but not [14,15]-EET (FIG. 2C). […] Compared to transfection with the empty pcDNA3.1 vector, overexpression of CYP2J2 decreased TNF-induced VCAM-1 and pκB.Luc promoter activity by 70-80% which were reversed in the presence of SK[…] (FIG. 2C). Neither transfection with CYP2J2 cDNA alone nor treatment with SK[…] alone affected basal promoter activity.

A further data set deals with NF-κB. The experiment in a line: NF-κB heterologous promoter (pκB.Luc) luciferase reporter in bovine endothelial cells. How it is done:
FIG. 2 is a set of bar graphs of cell-surface enzyme immunoassays. […] The difference between treatment with TNF-α alone and in the presence of [11,12]-EET were statistically significant (*p<0.05, **p<0.01), OD, optical density. […] After stimulation with TNF-α (10 ng/ml) in the presence or absence of EET, promoter activity was determined relative to basal activity. *p<0.01 vs. TNF-α alone.
To localize cis-acting elements in the VCAM-1 promoter that might mediate the inhibitory effects of [11,12]-EET, we transiently transfected bovine aortic endothelial cells with a −755 bp VCAM-1 promoter construct (DeCaterina et al., 96 J. Clin. Invest. 60 (1995)). Stimulation with TNF-α induced a 13-fold increase in relative VCAM-1 promoter activity that was abolished by cotreatment with [11,12]-EET. […] To confirm that the tandem κB sites in the VCAM-1 promoter are repressed by [11,12]-EET we subcloned them into a heterologous promoter construct containing the SV40 enhancer linked to the luciferase reporter gene (pκB.Luc). Stimulation of transfected endothelial cells with TNF-α induced a 6-fold increase in pκB.Luc promoter activity that was abolished by co-treatment with [11,12]-EET, but not [14,15]-EET (FIG. 2C). […] Compared to transfection with the empty pcDNA3.1 vector, overexpression of CYP2J2 decreased TNF-induced VCAM-1 and pκB.Luc promoter activity by 70-80% which were reversed in the presence of SKF525A (FIG. 2C). Neither transfection with CYP2J2 cDNA alone nor treatment with SKF525A alone affected basal promoter activity.
(In general: Reporter assays use an easily measured gene product as a stand-in for the process of interest.)

In data set [1] the test system is bovine aortic endothelial cells (BAECs). The experiment in a line: Hypoxia-reoxygenation-induced cell injury in BAECs (cell number, LDH release, trypan blue). How it is done:
Effects of P450-derived arachidonic acid metabolites on hypoxia-reoxygenalion-induced injury in BAECs. BAECs, either untransfected, or 48 hours after transfection with pcDNA3.1/GFP or pcDNA3.1/CYP2J2, or 10 min after treatment with eicosanoids, epoxide hydrolase inhibitors or vehicle, were exposed to hypoxia (95% nitrogen plus 5% carbon dioxide) for 24 hours, followed by reoxygenation (95% air plus 5% carbon dioxide) for 4 hours using an environmental chamber within a 37° C. incubator. Cells maintained under continuous (28 hours) normoxic conditions served as controls.
EETs were prepared by total chemical synthesis as previously described (Corey el al., 102 J. Am. Chem. Soc. 1433-1435 (1980), Falck et al., 23 Tetrahedron Lett. 1755-1756 (1982)). DHETs were prepared by chemical hydration of EETs as described by Capdevila et al., 187 Methods Enzymol. 386-394 (1990). Synthetic EETs and DHETs were purified by reverse-phase HPLC prior to use. BAECs, grown to ˜85% confluency, were treated with either synthetic [11,12]-EET, [11,12]-DHET, or [14,15]-EET in ethanol vehicle (1 μmol/L each, final concentration) for 10 min prior to exposure to hypoxia-reoxygenation. […] Cells treated with vehicle alone served as controls.
After hypoxia-reoxygenation, the cell number was determined using a hemocytometer and the degree of cell injury was assessed by measuring lactate dehydrogenase release into the culture medium using the CytoTox 96 Non-Radioactive Cytotoxicity Assay Kit (Promega, Madison, Wis.) and by counting the number of trypan blue dye stained cells. Data are expressed as a percentage of values obtained from control cells maintained under normoxic conditions.
(LDH leaks from cells whose membrane has failed.)

Where [2] appears, read: overexpression vs empty pcDNA3.1 vector.
Setting [3] is: CYP2J2-transfected vs GFP-transfected BAECs.

The source of these data is patent publication US6916843B1, “Anti-inflammatory actions of cytochrome P450 expoxygenase-derived eicosanoids” (The United States of America as represented by the …, priority 1999, dated 2005).

As for `CCCCC/C=C\C[C@H]1O[C@H]1C/C=C\C/C=C\CCCC(=O)O` [[11,12]-EET], in the data set on VCAM-1 promoter (cotreatment with TNF-α (13-fold increase)), the “effect on TNF-α-induced VCAM-1 promoter activity, −755 bp construct” value is reported as “abolished”. Moreover, the “effect on TNF-α-induced pκB.Luc promoter activity” value in the data set with NF-κB (100 nM, TNF-α 10 ng/ml (6-fold increase)) was “abolished”. Besides, the “hypoxia-reoxygenation-induced cell injury, number of trypan blue stained cells” value in data set [1] (1 μmol/L, added 10 min prior to hypoxia (24 h hypoxia, 4 h reoxygenation)) is listed as “significantly attenuates”.

As for “CYP2J2: CYP2J2 cDNA (1.9 kb) subcloned into plasmid pcDNA3.1, transfected into endothelial cells”, the “decrease of TNF-induced VCAM-1 promoter activity” value with VCAM-1 promoter (setting [2]) is 70-80%. Also, the “decrease of TNF-induced pκB.Luc promoter activity” value in the data set on NF-κB (setting [2]) is given as 70-80%. Also, in data set [1] (setting [3]), the “cell number after hypoxia-reoxygenation” value is “slightly increased”, the “lactate dehydrogenase released into culture medium after hypoxia-reoxygenation” value is recorded as “significantly less” and the “trypan blue stained cells after hypoxia-reoxygenation” value was “significantly fewer”.
